Data published in patent US20210015752A1, “METHODS FOR PRODUCING PARTICLES OF AN ACTIVE INGREDIENT” (Savior Lifetec Corporation, priority 2017, published 2021).
Values belong to the compound of their own block, whether it stands above or below them.

Legend:
Type in all cases: physicochemical
[1] = Emulsion test of L-ascorbic acid in various types of solvents; conditions: stirred 3 hr
Excerpt: Two combinations of solvents gave emulsified solutions, there were tetrahydrofuran/heptanes and methanol/water

[2] = Solubility test of paliperidone palmitate in various types of solvents; conditions: ratio 1/15 (v/w), 30° C., stirred about 0.5 hour
Protocol: The solubility of paliperidone palmitate in various types of solvents was evaluated. To this purpose, paliperidone palmitate and the designated solvent were mixed in a ratio of 1/15 (v/w) at 30° C. and the mixture was stirred for about 0.5 hour.

[3] = Emulsion test of paliperidone palmitate in various types of solvents; conditions: stirred 3 hr
Protocol: Paliperidone palmitate was dissolved in DCM, THF, or toluene at 30° C. and stirred for about 0.5 hour to form a first solution, then a second solvent (as indicated in Table 2) was added and stirred for 3 hr. As the data in Table 2 indicated, among the 36 combinations (i.e., the combination of one of the 3 first solutions and one of the second solvents), only three combinations gave satisfied emulsified solutions, which comprised particles of paliperidone palmitate. The 3 combinations were THF/water, toluene/heptanes, and toluene/hexane, respectively.

Emulsion test result of the first solution containing L-ascorbic acid with the second solvent ([1]; first solvent methanol, second solvent water): emulsified | Emulsion test result of the first solution containing L-ascorbic acid with the second solvent ([1]; first solvent tetrahydrofuran, second solvent heptanes): emulsified
Structure (SMILES): O=C1O[C@H]([C@@H](O)CO)C(O)=C1O [L-ascorbic acid]

Solubility of paliperidone palmitate ([2]; solvent ACN): insoluble | Solubility of paliperidone palmitate ([2]; solvent Acetone): insoluble | Solubility of paliperidone palmitate ([2]; solvent DCM): soluble | Solubility of paliperidone palmitate ([2]; solvent EtOAc): insoluble | Solubility of paliperidone palmitate ([2]; solvent EtOH): insoluble | Solubility of paliperidone palmitate ([2]; solvent Heptanes): insoluble | Solubility of paliperidone palmitate ([2]; solvent Hexane): insoluble | Solubility of paliperidone palmitate ([2]; solvent IPA): insoluble | Solubility of paliperidone palmitate ([2]; solvent MTBE): insoluble | Solubility of paliperidone palmitate ([2]; solvent THF): soluble | Solubility of paliperidone palmitate ([2]; solvent Toluene): soluble | Solubility of paliperidone palmitate ([2]; solvent Water): insoluble | Solubility of the second solvent in the first solution containing paliperidone palmitate ([3]; first solvent DCM, second solvent ACN): miscible | Solubility of the second solvent in the first solution containing paliperidone palmitate ([3]; first solvent DCM, second solvent Acetone): miscible | Solubility of the second solvent in the first solution containing paliperidone palmitate ([3]; first solvent DCM, second solvent EtOAc): miscible | Solubility of the second solvent in the first solution containing paliperidone palmitate ([3]; first solvent DCM, second solvent EtOH): miscible | Solubility of the second solvent in the first solution containing paliperidone palmitate ([3]; first solvent DCM, second solvent Heptanes): miscible | Solubility of the second solvent in the first solution containing paliperidone palmitate ([3]; first solvent DCM, second solvent Hexane): miscible | Solubility of the second solvent in the first solution containing paliperidone palmitate ([3]; first solvent DCM, second solvent IPA): miscible | Solubility of the second solvent in the first solution containing paliperidone palmitate ([3]; first solvent DCM, second solvent MTBE): miscible | Solubility of the second solvent in the first solution containing paliperidone palmitate ([3]; first solvent DCM, second solvent THF): miscible | Solubility of the second solvent in the first solution containing paliperidone palmitate ([3]; first solvent DCM, second solvent Toluene): miscible | Solubility of the second solvent in the first solution containing paliperidone palmitate ([3]; first solvent DCM, second solvent Water): layered | Solubility of the second solvent in the first solution containing paliperidone palmitate ([3]; first solvent THF, second solvent ACN): miscible | Solubility of the second solvent in the first solution containing paliperidone palmitate ([3]; first solvent THF, second solvent Acetone): miscible | Solubility of the second solvent in the first solution containing paliperidone palmitate ([3]; first solvent THF, second solvent DCM): miscible | Solubility of the second solvent in the first solution containing paliperidone palmitate ([3]; first solvent THF, second solvent EtOAc): miscible | Solubility of the second solvent in the first solution containing paliperidone palmitate ([3]; first solvent THF, second solvent EtOH): miscible | Solubility of the second solvent in the first solution containing paliperidone palmitate ([3]; first solvent THF, second solvent Heptanes): miscible | Solubility of the second solvent in the first solution containing paliperidone palmitate ([3]; first solvent THF, second solvent Hexane): miscible | Solubility of the second solvent in the first solution containing paliperidone palmitate ([3]; first solvent THF, second solvent IPA): miscible | Solubility of the second solvent in the first solution containing paliperidone palmitate ([3]; first solvent THF, second solvent MTBE): miscible | Solubility of the second solvent in the first solution containing paliperidone palmitate ([3]; first solvent THF, second solvent Toluene): miscible | Solubility of the second solvent in the first solution containing paliperidone palmitate ([3]; first solvent THF, second solvent Water): emulsified | Solubility of the second solvent in the first solution containing paliperidone palmitate ([3]; first solvent Toluene, second solvent ACN): miscible | Solubility of the second solvent in the first solution containing paliperidone palmitate ([3]; first solvent Toluene, second solvent Acetone): miscible | Solubility of the second solvent in the first solution containing paliperidone palmitate ([3]; first solvent Toluene, second solvent DCM): miscible | Solubility of the second solvent in the first solution containing paliperidone palmitate ([3]; first solvent Toluene, second solvent EtOAc): miscible | Solubility of the second solvent in the first solution containing paliperidone palmitate ([3]; first solvent Toluene, second solvent EtOH): miscible | Solubility of the second solvent in the first solution containing paliperidone palmitate ([3]; first solvent Toluene, second solvent Heptanes): emulsified | Solubility of the second solvent in the first solution containing paliperidone palmitate ([3]; first solvent Toluene, second solvent Hexane): emulsified | Solubility of the second solvent in the first solution containing paliperidone palmitate ([3]; first solvent Toluene, second solvent IPA): miscible | Solubility of the second solvent in the first solution containing paliperidone palmitate ([3]; first solvent Toluene, second solvent MTBE): miscible | Solubility of the second solvent in the first solution containing paliperidone palmitate ([3]; first solvent Toluene, second solvent THF): miscible | Solubility of the second solvent in the first solution containing paliperidone palmitate ([3]; first solvent Toluene, second solvent Water): layered
Structure (SMILES): CCCCCCCCCCCCCCCC(=O)OC1CCCn2c1nc(C)c(CCN1CCC(c3noc4cc(F)ccc34)CC1)c2=O (centres unmarked) [paliperidone palmitate]
